Laboratory results: article PMC3836617 (Pharmaceutics, 2013)
Values joined by “and” are separate entries in the source; they are usually repeats but may differ in a detail not shown here. Equal values may be shown once. Read-outs that look alike come from different tables or passages of the source.

Key:
[1] = for Permeated amount after 12 h: full-thickness skin preincubated with 2 mM BNPP 1 h
Experimental: (§3) Fresh excised abdominal skin was used for these experiments. To strip skin, stratum corneum was removed by 20 successive strippings using cellophane adhesive tape (Nichiban K.K., Japan) according to conventional methods. The excised skin was mounted between half-cells with the dermal side in contact with receptor fluid (pH 6.8 phosphate-buffered saline (PBS) with 3% BSA). Receptor fluid flow rate was 5 mL/h. Two milliliters of drug suspension (drug amount = twice the amount required for saturation) in pH 4.0 acetate buffer was added to the donor chamber.
In an inhibition study for CES, skin mounted between the half-cells was preincubated with the dermal side in contact with 2 mM BNPP (dissolved in pH 6.8 PBS containing 3% BSA) for 1 h.
(§4) The in vitro permeation parameters were calculated from the penetration data using the following equations: Js = (KmDC)/δ = KpC and τ = δ^2/6D, where Js is steady state flux, Km is the solvent membrane partition coefficient of drug, D is diffusion coefficient, C is drug concentration in donor chamber, δ is thickness of rat skin, Kp is the permeability coefficient of drug, and τ represents lag time.

[2] = Nonenzymatic hydrolysis of caproyl-PL to PL in buffer; format: physicochemical
Experimental: Hydrolysis was greater under basic buffer conditions […]. […] The hydrolysis of caproyl-PL was <0.05% during the sampling period (1 h) at pH 6.8 in PBS containing 3% BSA.

[3] = Hydrolysis in rat skin S9 fraction; format: in vitro ADME; details: for Hydrolysis in skin S9 relative to liver microsomes (slower) / Vmax in skin S9 relative to liver microsomes (smaller) / Vmax/Km in skin S9 relative to liver microsomes (smaller): skin S9 vs liver microsomes
Experimental: After hair was carefully clipped and shaved, rats were sacrificed by exsanguination under ether anesthesia. Abdominal and dorsal skin was removed using a scalpel and dissection scissors. A few pieces of skin were stored in liquid nitrogen for extraction of total RNA. The skin was minced, mixed with five volumes of ice-cold 4-(2-hydroxyethyl)-1-piperazineethanesulfonic acid (HEPES) buffer (50 mM, pH 7.4) containing 0.15 M KCl, and homogenized using a Polytron (Kinematica, Lucerne, Switzerland) on ice. Whole homogenate was filtered through a funnel containing buffer-soaked cotton wool. After centrifugation of the skin homogenate at 9000g for 20 min at 4 °C, the supernatant fraction (S9) was obtained. Protein content was determined by the method described by Bradford using bovine serum albumin (BSA) as standard. The skin S9 was stored at −80 °C until use.
(§1) Hydrolysis of PNPA, PNPB, and caproyl-PL were performed in S9 and microsomal fractions of rat liver, testis, kidney and skin. Tissue samples were diluted with 50 mM HEPES (pH 7.4) buffer at appropriate protein concentrations and preincubated for 5 min at 37 °C. The hydrolysis reaction was initiated by the addition of test compounds dissolved in dimethyl sulfoxide (DMSO). The final concentration of DMSO was less than 0.5%, which has no effect on hydrolytic activity. The rate of hydrolysis of PNPA and PNPB (final concentrations 15–500 μM) was determined by the initial linear increase in absorbance of p-nitrophenol at 405 nm (V-530, JASCO Co., Tokyo, Japan).
For the hydrolysis of caproyl-PL, the reaction was terminated by addition of 5 mL ethylacetate. After extraction of PL, as previously described, stereoselective determination was carried out using high-performance liquid chromatography (HPLC).

[4] = for Permeated amount after 12 h: labelled species found in receptor fluid
Experimental: as §3, §4

[5] = cited from earlier work
[6] = Hydrolysis in rat testis microsomes; format: in vitro ADME; details: pH 7.4; for Km: testis microsomes 10 μg/mL for PNPA, 5 μg/mL for PNPB; for Vmax: testis microsomes
Experimental: (§2) The excised liver, kidney, and testis were washed with ice-cold 0.15 M KCl, and finely minced using scissors. Minced tissues were homogenized with 3 volumes of 50 mM HEPES buffer (pH 7.4) containing 0.15 M KCl in a Potter–Elvehjem glass homogenizer equipped with a Teflon pestle under ice-cold conditions. Homogenates (25% wet w/v) were centrifuged at 9000g for 20 min at 4 °C, to give the S9 fraction. S9 fraction was further centrifuged at 100,000g for 1 h at 4 °C. The resulting pellets were resuspended in 50 mM HEPES buffer (pH 7.4) containing 0.15 M KCl to prepare the microsomal fraction. Protein concentrations were determined by the method of Bradford using BSA as standard. S9 and the microsomal fraction were stored at −80 °C until use.
as §1

[7] = Hydrolysis in rat liver microsomes; format: in vitro ADME; details: pH 7.4; for Vmax: liver microsomes; for Km: liver microsomes 20 μg/mL for PNPA, 10 μg/mL for PNPB
Experimental: as §2, §1

[8] = Hydrolysis in rat kidney microsomes; format: in vitro ADME; details: pH 7.4; for Vmax: kidney microsomes; for Km: kidney microsomes 10 μg/mL
Experimental: as §2, §1

esterases of rat skin S9 = test: Native PAGE esterase activity staining of rat skin S9 with 1-naphthylacetate; format: biochemical; details: native PAGE stained with 1-naphthylacetate
Experimental: Polyacrylamide gel electrophoresis (PAGE) was performed as described by Mentlein et al. [15]. Polyacrylamide gels (7.5% w/w), containing 1% (w/v) nonidet P-40 for solubilization of proteins, were used for the separation of native enzymes. After electrophoresis of tissue samples (10–40 μg protein), the gels were stained for esterase activity with 1-naphthylacetate through coupling to liberated 1-naphthol with Fast Red TR-salt.
All proteins with hydrolytic activity can be visualized by this technique. […] In order to compare skin esterase with tissue-specific CES isozymes, the microsomal fraction of each rat organ was applied to a native PAGE gel.

[9] = after application of caproyl-PL, labelled species, stripped skin
[10] = after application of caproyl-PL, total, stripped skin
[11] = after application of caproyl-PL, labelled species
[12] = after application of caproyl-PL, labelled species, full-thickness skin with BNPP
[13] = after application of caproyl-PL, total, full-thickness skin with BNPP
[14] = after application of caproyl-PL, full-thickness skin, n = 6
[15] = after application of caproyl-PL, labelled species, full-thickness skin
[16] = after application of caproyl-PL, total of caproyl-PL and PL, full-thickness skin
[17] = caproyl-PL applied to full-thickness skin
[18] = after application of PL, stripped skin
[19] = after application of PL, full-thickness skin with BNPP
[20] = after application of PL, full-thickness skin
[21] = hydrolysis, skin S9 300 μg/mL, 50 mM HEPES pH 7.4

With `O=[N+]([O-])c1ccc(OP(=O)(O)Oc2ccc([N+](=O)[O-])cc2)cc1` [BNPP, bis-p-nitrophenyl phosphate] the “PL conversion from caproyl-PL after treatment with BNPP” value ([1]; 2 mM BNPP on receiver side for 1 h, full-thickness skin) was “markedly decreased”.
In the case of `CCCCCC(=O)OC(CNC(C)C)COc1cccc2ccccc12.Cl` (stereo not drawn) [Caproyl-PL, O-caproyl-PL hydrochloride], the “Nonenzymatic hydrolysis of caproyl-PL to PL” value ([2]; in 12 h, pH 4.0 acetate buffer) is reported as under 0.1%, the “Nonenzymatic hydrolysis of caproyl-PL” value ([2]; sampling period 1 h, pH 6.8 PBS containing 3% BSA) is reported as under 0.05% and the Vmax ([3]; hydrolysis of caproyl-PL in rat skin S9) is reported as 9.24 ± 2.95 nmol/min/mg S9 protein. The Km ([3]; hydrolysis of caproyl-PL in rat skin S9, read-out: Km value) was 19.7 ± 5.36 µM, the “Hydrolysis in skin S9 relative to liver microsomes (slower)” value [3] was 20 fold and the “Steady-state flux and Kp values of intact caproyl-PL in stripped skin relative to full-thickness skin (greater)” value (after application of caproyl-PL) was 6 fold. The Lag time [9] was 4.7 ± 1.7 h, the “Permeated amount after 12 h” value [9] was 12 ± 13 nmol and the “Skin concentration at 12 h” value [9] was 3,200 ± 580 nmol/g tissue. For the same molecule, the Steady state flux [9] was 2.4 ± 0.98 nmol/h, the “Skin concentration at 12 h” value (after application of caproyl-PL, labelled species, stripped skin, listed as caproyl-PL) was 3200 ± 580 nmol/g tissue and the “Permeated amount after 12 h, Total” value (after application of caproyl-PL, total of caproyl-PL and PL, stripped skin) was 200 ± 50 nmol. The “Lag time, Total” value [10] was 3.6 ± 0.43 h, the “Skin concentration at 12 h, Total” value [10] was 4,100 ± 600 nmol/g tissue and the “Steady state flux, Total” value [10] was 23 ± 5.5 nmol/h. The “Permeation clearance from viable skin to receptor fluid” value (calculated from steady-state flux and cutaneous concentration in stripped skin) was 0.75 mg tissue/h, the “Concentration of caproyl-PL in stripped skin relative to Km value (higher)” value (vs Km in skin S9) was 160 fold and the “Permeated amount after 12 h” value [1, 11] was 3.9 ± 3.4 nmol. For the same molecule, the Lag time [1, 12] was 8.3 ± 1.2 h, the “Skin concentration at 12 h” value [1, 12] was 2,100 ± 220 nmol/g tissue and the Steady state flux [1, 12] was 0.83 ± 0.65 nmol/h. For the same molecule, the “Lag time, Total” value [1, 13] was 6.4 ± 0.92 h, the “Permeated amount after 12 h, Total” value [1, 13] was 25 ± 21 nmol and the “Skin concentration at 12 h, Total” value [1, 13] was 2,200 ± 230 nmol/g tissue. For the same molecule, the “Steady state flux, Total” value [1, 13] was 4.1 ± 3.1 nmol/h, the “Permeated amount, steady state flux and Kp value of intact caproyl-PL, increase by treatment with BNPP” value ([1]; full-thickness skin with vs without BNPP) was 2 fold and the “Skin concentration of caproyl-PL relative to PL (higher)” value ([4]; 12 h after dosing caproyl-PL, full-thickness skin) was 3.5 fold. The “Permeated amount after 12 h” value [4, 14] was 1.7 ± 1.4 nmol, the Lag time [4, 15] was 7.0 ± 0.78 h and the “Skin concentration at 12 h” value [4, 15] was 1,900 ± 630 nmol/g tissue. The Steady state flux [4, 15] was 0.40 ± 0.28 nmol/h, the “Skin concentration at 12 h” value ([4]; after application of caproyl-PL, labelled species, full-thickness skin, listed as caproyl-PL) was 1900 ± 630 nmol/g tissue and the “Lag time, Total” value [4, 16] was 4.9 h and 4.9 ± 1.1 h. The “Permeated amount after 12 h, Total” value [4, 16] was 140 ± 33 nmol, the “Skin concentration at 12 h, Total” value [4, 16] was 2,400 ± 780 nmol/g tissue and the “Steady state flux, Total” value [4, 16] was 20 ± 6.1 nmol/h. The “Predicted concentration of caproyl-PL in viable epidermis and dermis” value ([4]; after application to full-thickness skin, estimated from flux and permeation clearance) was “about 500 nmol/g tissue”, the “Dose retained in the stratum corneum” value [4, 17] was 75% and the “Dose transferred into viable skin” value [4, 17] was 25%. For the same molecule, the “Predicted concentration in viable epidermis and dermis relative to Km value (higher)” value ([4]; full-thickness skin) was 25 fold, the “log PC” value ([5]; between 1-octanol and pH 4.0 phosphate buffer, method and reference not given) was 2.3 and the pKa ([5]; stated in discussion, method and reference not given) was 9.1. The “Constant concentration in donor compartment (suspension)” value ([5]; suspension in pH 4.0 acetate buffer) was 6.4 mM.
For `CC(C)NCC(O)COc1cccc2ccccc12` (stereo not drawn) [PL, propranolol], the “Amount permeated after 12 h” value [18] was 17,000 ± 3,600 nmol, the Lag time [18] was 1.4 ± 0.36 h and the “Skin concentration at 12 h” value [18] was 6,900 ± 3,700 nmol/g tissue. For the same molecule, the Lag time [9] was 3.6 ± 0.38 h, the “Permeated amount after 12 h” value [9] was 190 ± 55 nmol and the “Skin concentration at 12 h” value [9] was 870 ± 44 nmol/g tissue. For the same molecule, the Steady state flux [9] was 22 ± 6.4 nmol/h, the “Amount permeated after 12 h” value [1, 19] was 2,600 ± 990 nmol and the Lag time [1, 19] was 0.84 ± 0.24 h. For the same molecule, the “Skin concentration at 12 h” value [1, 19] was 9,900 ± 590 nmol/g tissue, the Steady state flux [1, 19] was 240 ± 87 nmol/h and the “Permeated amount after 12 h” value [1, 11] was 21 ± 18 nmol. The Lag time [1, 12] was 6.3 ± 0.93 h, the “Skin concentration at 12 h” value [1, 12] was 130 ± 7.7 nmol/g tissue and the Steady state flux [1, 12] was 3.5 ± 2.6 nmol/h. For the same molecule, the Lag time [4, 20] was 1.5 ± 0.56 h, the “Skin concentration at 12 h” value [4, 20] was 9,400 ± 380 nmol/g tissue and the Steady state flux [4, 20] was 240 ± 94 nmol/h. For the same molecule, the “Amount permeated after 12 h” value ([4]; after application of PL, full-thickness skin, n = 6) was 2,600 ± 970 nmol, the “Permeated amount after 12 h” value [4, 14] was 140 ± 35 nmol and the Lag time [4, 15] was 4.9 ± 1.1 h. The “Skin concentration at 12 h” value [4, 15] was 550 ± 120 nmol/g tissue and the Steady state flux [4, 15] was 20 ± 6.2 nmol/h.
With `CC(=O)Oc1ccc([N+](=O)[O-])cc1` [PNPA, p-nitrophenylacetate] the Km ([6]; male, rat) was 34.6 ± 1.27 µM, the Vmax [6] was 1,606 ± 333 nmol/min/mg protein and the Vmax [3, 21] was 188 ± 30.3 nmol/min/mg protein. For the same molecule, the Km ([3]; rat, skin S9 fraction, hydrolysis, skin S9 300 μg/mL, 50 mM HEPES pH 7.4, 37 °C, mean ± S.D. (n = 3/4), read-out: Km) was 55.5 ± 8.18 µM, the “Hydrolysis in skin S9 relative to liver microsomes (slower)” value [3] was “around 20 fold” and the “Vmax in skin S9 relative to liver microsomes (smaller)” value [3] was 19 fold. For the same molecule, the “Vmax/Km in skin S9 relative to liver microsomes (smaller)” value [3] was 21 fold, the Vmax [7] was 3,570 ± 810 nmol/min/mg protein and the Km ([7]; rat) was 57 ± 18.2 µM. The Vmax [8] was 2,432 ± 497 nmol/min/mg protein and the Km ([8]; rat) was 268 ± 83.8 µM.
With `CCCC(=O)Oc1ccc([N+](=O)[O-])cc1` [PNPB, p-nitrophenylbutyrate] the Km [6] was 63.4 ± 13.9 µM, the Vmax [6] was 2,978 ± 398 nmol/min/mg protein and the Vmax [3, 21] was 460 ± 127 nmol/min/mg protein. For the same molecule, the Km ([3]; hydrolysis, skin S9 300 μg/mL, 50 mM HEPES pH 7.4, 37 °C, mean ± S.D. (n = 3/4), read-out: Km) was 97.1 ± 30.2 µM, the “Hydrolysis in skin S9 relative to liver microsomes (slower)” value [3] was “around 20 fold” and the “Vmax in skin S9 relative to liver microsomes (smaller)” value [3] was 9 fold. For the same molecule, the “Vmax/Km in skin S9 relative to liver microsomes (smaller)” value [3] was 24 fold, the Km [7] was 37.1 ± 9.42 µM and the Vmax [7] was 4,220 ± 521 nmol/min/mg protein. It also gave a Km [8] of 97 ± 16.6 µM and a Vmax [8] of 994 ± 286 nmol/min/mg protein.
For `CCN(CC)C(C)CN1c2ccccc2Sc2ccccc21` (stereo not drawn) [ethopropazine], the “Inhibition of formation of esterase bands of skin S9” value (esterases of rat skin S9) was “not inhibited”.
